Experimental data published in patent publication US12617818B2, “Compositions and methods for modulating myosin subfragment-2 coiled coil stability and methods for using them” (UNIVERSITY OF NORTH TEXAS, priority 2020, dated 2026).
Values joined by “and” are separate entries in the source; they are usually repeats but may differ in a detail not shown here. Equal values may be shown once.

What was measured:
[1] = system: rabbit skeletal myofibrils; test: Myofibrillar contractility assay (incubated myofibrils, 1 mM ATP); format: biochemical
[2] = target: T1, cardiac muscle myosin S2 mutant peptide E930del (MYH7) (Homo sapiens, UniProt P12883, DEL930-930); test: FRET of E930del mutant cardiac myosin S2 peptide dimer with stabilizer; format: binding
T1 construct: cardiac muscle myosin S2 peptides region 921 to 939; host or cells: chemical synthesis
Text: This mutation cause mechanical instability and unstable coiled coil. Again the sequence of this mutation was obtained using PDB. An 18 residue peptide of this region was chemically synthesized. Generated amino acid sequence used is as follow: • E930del: NH2-[…]—COOH (SEQ ID NO:8)
(§1) Resonance energy probes (donor and acceptor) were covalently attached to synthetic myosin S2 peptides of cardiac muscle, E930del cardiac muscle, E924K cardiac muscle, smooth muscle, and skeletal muscle (Aboonasrshiraz, N., 2020).
(§2) Acceptor probe was conjugated to muscle myosin S2 peptides at N-terminus. Muscle myosin S2 peptides were dissolved in 20 mM HEPES buffer at pH 8.0. And FITC was dissolved in few drops of N, N dimethyl formamide. Lastly, FITC and muscle myosin S2 peptide was reacted together in 1 to 1 molar ratio and was let to react for 120 minutes at room temperature. The FITC conjugated S2 peptides were purified using […]. […]
(§3) In FRET assay, Fluorescein Isothiocyanate (FITC) functioned as fluorescent acceptor probe and Terbium Diethylene Triamine Pentaacetic Acid-Cytosine (Lanthanide-DTPA-Cytosine) functioned as donor probe. […] Lifetime of donor probe was measured in milliseconds.
In FRET assay, like E924K, Edel930 was treated with different concentrations of the stabilizer. […] Calculated separation distance in presence of the stabilizer peptide was 3.38 nm.

[3] = target: T2, cardiac muscle myosin S2 mutant peptide E924K (MYH7) (Homo sapiens, UniProt P12883, E924K); test: FRET of E924K mutant cardiac myosin S2 peptide dimer with stabilizer; format: binding
T2 construct: cardiac muscle myosin S2 peptides region 921 to 939; host or cells: chemical synthesis
Text: This mutation also causes mechanical instability and unstable coiled coil. Sequence of this mutation was obtained using PDB. A 19 residue peptide of this region was chemically synthesized. Generated amino acid sequence used is as follow: • E924K: NH2-[…]—COOH (SEQ ID NO:9)
as §1, §2, §3
E924K and Edel930; the myosin S2 HCM mutants, form unstable dimers. […] The calculated separation distance in presence of the stabilizer peptide was 3.65 nm. […]

[4] = target: T3, cardiac muscle myosin S2 peptide wild-type (MYH7) (Homo sapiens, UniProt P12883); test: FRET of cardiac muscle myosin S2 peptide dimer with anti-S2 peptides; format: binding; conditions: Cardiac peptide with Stabilizer
T3 construct: The 19 residue peptide was chemically synthesized; purchased BioSynthesis; Inc; host or cells: chemical synthesis
Text: A small region of myosin subfragment 2 (S2) region of human β-cardiac myosin (MYH7) was selected to be synthesized by BioSynthesis; Inc. The region was selected based on mutations found within this region causing Familial hypertrophic cardiomyopathy (FHC) (Richard et al., 2003). The mutations are located within proximal region of myosin S2 specifically region of 921-939 (FIG. 7). Myosin S2 is an intrinsically unstable coiled coil and the sequence of this region was acquired from Protein Data Bank (PDB). The 19 residue peptide was chemically synthesized. Generated amino acid sequence used is as follow:
Chelate-lanthanide complex was utilized as the donor probe, which is composed of a lanthanide, an antenna, and a chelate. Organic chromophore antenna ([…]) will absorb a photon of light, and it will transfer energy to lanthanide ion (terbium III). This probe excites at 248 nm and emits at 547 nm.
Fluorescein was used as the acceptor probe. […]
In this experiment, luminescence spectrometer, AMNICO-BOWMAN SERIES 2 SPECTROMETER™, was used to detect resonance energy transfer. […] Emission signal generated from decay of molecules was detected by a photomultiplier tube, which contains proper color filters to detect the emitted photons.
FRET measured the dissociation constant (binding affinity) between the myosin S2 dimers and the anti-S2 peptides. […]

CSCC[C@H](NC(=O)[C@H](CCC(=O)O)NC(=O)[C@H](CCCNC(=N)N)NC(=O)[C@H](CCC(=O)O)NC(=O)[C@H](CC(=O)O)NC(=O)[C@H](CCC(=O)O)NC(=O)[C@H](CC(C)C)NC(=O)[C@H](CCCNC(=N)N)NC(=O)[C@H](CCC(=O)O)NC(=O)[C@H](CC(N)=O)NC(=O)[C@H](CCSC)NC(=O)[C@@H](N)CCC(=O)O)C(=O)N[C@@H](CCCCN)C(=O)N[C@@H](C)C(=O)N[C@@H](CCC(=O)O)C(=O)N[C@@H](CC(C)C)C(=O)N[C@H](C(=O)N[C@@H](C)C(=O)N[C@@H](CCCCN)C(=O)O)[C@@H](C)O [Destabilizer]
concentration above which percentage contraction saturated [1]: above 40 nM
Kd ([1]; from percentage contraction vs concentration, listed as destabilizer peptide, read-out: binding efficiency (Kd) to myofibrils): 7.88 nM and 7.8 nM
maximum percentage contraction in myofibrils ([1]; in presence of destabilizer peptide): 43% and 41%
EC50 ([1]; read-out: effective concentration on percentage of contraction in myofibrils): < 10 nM

C[C@H](NC(=O)[C@H](CCCCN)NC(=O)[C@H](Cc1ccccc1)NC(=O)[C@H](CCCCN)NC(=O)[C@H](CCCCN)NC(=O)[C@H](CCCCN)NC(=O)[C@H](CCCCN)NC(=O)[C@H](CCCCN)NC(=O)[C@H](CCCCN)NC(=O)[C@H](CCCCN)NC(=O)[C@@H](N)CCCCN)C(=O)N[C@@H](CCCCN)C(=O)N[C@@H](CCCCN)C(=O)N[C@@H](CCCCN)C(=O)N[C@@H](CCCCN)C(=O)N[C@@H](CCCCN)C(=O)N[C@@H](CCCCN)C(=O)O [Stabilizer]
TD (donor lifetime without acceptor) [2]: 1.89E−03
TD (donor lifetime without acceptor) [3]: 1.94E−03
TD (donor lifetime without acceptor) [4]: 1.73E−03
